# Results taken from paper PMC9234961 (Journal of Medicinal Chemistry, 2022).
# Where two headings read alike, the source gives them in different places.
# Assays:
# kinases (468) [1] = biological target: kinases (468) (Homo sapiens, UniProt P15056); details: BRAF; 1000 nM
# kinases (468) [2] = biological target: kinases (468) (Homo sapiens, UniProt P45984); details: JNK2 (MAPK9); 1000 nM
# kinases (468) [3] = biological target: kinases (468) (Homo sapiens, UniProt Q9Y6E0); details: MST3 (STK24); 1000 nM
# kinases (468) [4] = biological target: kinases (468) (Homo sapiens, UniProt Q13164); details: ERK5 (MAPK7); 1000 nM
# kinases (468) [5] = biological target: kinases (468) (Homo sapiens, UniProt Q15418); details: compound concentration 1000 nM
# kinases (468) (Homo sapiens, UniProt Q15418), sequence (Q15418 whole entry): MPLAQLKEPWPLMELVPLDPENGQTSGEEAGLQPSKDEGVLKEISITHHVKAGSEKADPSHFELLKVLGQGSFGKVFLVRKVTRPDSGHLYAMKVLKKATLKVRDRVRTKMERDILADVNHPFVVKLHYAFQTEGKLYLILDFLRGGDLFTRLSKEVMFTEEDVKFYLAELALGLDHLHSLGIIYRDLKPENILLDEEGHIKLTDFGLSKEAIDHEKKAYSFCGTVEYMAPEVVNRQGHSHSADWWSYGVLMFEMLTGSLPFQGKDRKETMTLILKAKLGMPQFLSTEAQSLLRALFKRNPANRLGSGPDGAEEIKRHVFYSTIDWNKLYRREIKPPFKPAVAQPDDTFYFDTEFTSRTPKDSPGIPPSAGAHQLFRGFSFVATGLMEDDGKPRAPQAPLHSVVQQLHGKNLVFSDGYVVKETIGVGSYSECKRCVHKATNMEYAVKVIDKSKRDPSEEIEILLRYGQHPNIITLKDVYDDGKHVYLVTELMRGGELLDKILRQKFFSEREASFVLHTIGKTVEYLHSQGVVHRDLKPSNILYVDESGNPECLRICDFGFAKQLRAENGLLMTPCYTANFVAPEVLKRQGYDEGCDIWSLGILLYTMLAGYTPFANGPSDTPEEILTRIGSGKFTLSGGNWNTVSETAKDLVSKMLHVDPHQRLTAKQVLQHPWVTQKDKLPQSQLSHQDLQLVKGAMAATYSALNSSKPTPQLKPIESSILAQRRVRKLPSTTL
# kinases (468) [6] = biological target: kinases (468) (Homo sapiens, UniProt P22607, G697C); details: FGFR3(G697C); 1000 nM
# kinases (468) [7] = biological target: kinases (468) (Homo sapiens, UniProt Q9BRS2); details: kinase RIOK1 (Entrez RIOK1); compound concentration 1000 nM
# kinases (468) (Homo sapiens, UniProt Q9BRS2), sequence (Q9BRS2 whole entry): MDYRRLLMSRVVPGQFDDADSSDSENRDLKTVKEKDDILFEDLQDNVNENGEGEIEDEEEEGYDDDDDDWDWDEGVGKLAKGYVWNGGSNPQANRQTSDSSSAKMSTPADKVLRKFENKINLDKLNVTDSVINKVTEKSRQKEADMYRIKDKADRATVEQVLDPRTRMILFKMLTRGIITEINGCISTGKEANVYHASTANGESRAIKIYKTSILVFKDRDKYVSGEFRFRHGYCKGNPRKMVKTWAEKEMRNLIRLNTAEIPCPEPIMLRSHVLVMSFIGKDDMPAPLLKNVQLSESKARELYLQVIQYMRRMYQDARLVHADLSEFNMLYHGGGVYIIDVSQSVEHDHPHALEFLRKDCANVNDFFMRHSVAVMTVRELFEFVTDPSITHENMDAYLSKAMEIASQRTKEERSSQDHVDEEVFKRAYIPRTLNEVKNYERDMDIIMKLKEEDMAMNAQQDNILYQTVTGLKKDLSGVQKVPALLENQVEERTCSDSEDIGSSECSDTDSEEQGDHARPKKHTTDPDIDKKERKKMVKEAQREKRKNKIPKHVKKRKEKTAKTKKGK
# kinases (468) [8] = biological target: kinases (468) (Homo sapiens, UniProt O43318); details: kinase TAK1 (Entrez MAP3K7); compound concentration 1000 nM
# kinases (468) [9] = biological target: kinases (468) (Homo sapiens, UniProt P53667); details: LIMK1; 1000 nM
# kinases (468) [10] = biological target: kinases (468) (Homo sapiens, UniProt Q07002); details: PCTK3 (CDK18); 1000 nM
# kinases (468) [11] = biological target: kinases (468) (Homo sapiens, UniProt P33981); details: kinase TTK (Entrez TTK); compound concentration 1000 nM
# kinases (468) [12] = biological target: kinases (468) (Homo sapiens, UniProt Q9NYY3); details: PLK2; 1000 nM
# kinases (468) [13] = biological target: kinases (468) (Homo sapiens, UniProt P49840); details: GSK3A; 1000 nM
# kinases (468) [14] = biological target: kinases (468) (Homo sapiens, UniProt Q9Y3S1); details: kinase WNK2 (Entrez WNK2); compound concentration 1000 nM
# kinases (468) [15] = biological target: kinases (468) (Homo sapiens, UniProt Q13546); details: kinase RIPK1 (Entrez RIPK1); compound concentration 1000 nM
# kinases (468) (Homo sapiens, UniProt Q13546), sequence (Q13546 whole entry): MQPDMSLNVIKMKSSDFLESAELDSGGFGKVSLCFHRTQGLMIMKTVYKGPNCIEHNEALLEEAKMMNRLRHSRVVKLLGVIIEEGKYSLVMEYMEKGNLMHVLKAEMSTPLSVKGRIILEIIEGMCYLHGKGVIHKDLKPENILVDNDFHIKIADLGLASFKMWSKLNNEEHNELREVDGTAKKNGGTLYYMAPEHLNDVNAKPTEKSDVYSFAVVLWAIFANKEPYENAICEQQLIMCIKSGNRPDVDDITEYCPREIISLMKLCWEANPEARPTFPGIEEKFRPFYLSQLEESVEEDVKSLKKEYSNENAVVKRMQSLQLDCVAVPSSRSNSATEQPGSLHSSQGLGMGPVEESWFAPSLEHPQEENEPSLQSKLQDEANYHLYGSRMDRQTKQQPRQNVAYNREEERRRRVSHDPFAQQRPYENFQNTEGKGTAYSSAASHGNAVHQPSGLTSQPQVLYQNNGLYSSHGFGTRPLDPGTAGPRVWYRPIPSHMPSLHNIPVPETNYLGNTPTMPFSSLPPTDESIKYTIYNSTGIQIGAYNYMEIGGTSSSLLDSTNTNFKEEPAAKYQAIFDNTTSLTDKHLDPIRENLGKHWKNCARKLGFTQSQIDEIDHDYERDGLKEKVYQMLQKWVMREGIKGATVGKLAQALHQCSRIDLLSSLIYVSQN
# kinases (468) [16] = biological target: kinases (468) (Homo sapiens, UniProt P22607); details: FGFR3; 1000 nM
# kinases (468) [17] = biological target: kinases (468) (Homo sapiens, UniProt Q08345); details: DDR1; 1000 nM
# kinases (468) [18] = biological target: kinases (468) (Homo sapiens, UniProt P17612); details: PKAC-alpha (PRKACA); 1000 nM
# kinases (468) [19] = biological target: kinases (468) (Homo sapiens, UniProt Q8IYT8); details: kinase ULK2 (Entrez ULK2); compound concentration 1000 nM
# kinases (468) [20] = biological target: kinases (468) (Homo sapiens, UniProt Q9C098); details: DCAMKL3 (DCLK3); 1000 nM
# kinases (468) [21] = biological target: kinases (468) (Homo sapiens, UniProt O14965); details: AURKA; 1000 nM
# kinases (468) [22] = biological target: kinases (468) (Homo sapiens, UniProt Q8N5S9); details: CAMKK1; 1000 nM
# kinases (468) [23] = biological target: kinases (468) (Homo sapiens, UniProt Q9BXA7); details: kinase TSSK1B (Entrez TSSK1B); compound concentration 1000 nM
# kinases (468) (Homo sapiens, UniProt Q9BXA7), sequence (Q9BXA7 whole entry): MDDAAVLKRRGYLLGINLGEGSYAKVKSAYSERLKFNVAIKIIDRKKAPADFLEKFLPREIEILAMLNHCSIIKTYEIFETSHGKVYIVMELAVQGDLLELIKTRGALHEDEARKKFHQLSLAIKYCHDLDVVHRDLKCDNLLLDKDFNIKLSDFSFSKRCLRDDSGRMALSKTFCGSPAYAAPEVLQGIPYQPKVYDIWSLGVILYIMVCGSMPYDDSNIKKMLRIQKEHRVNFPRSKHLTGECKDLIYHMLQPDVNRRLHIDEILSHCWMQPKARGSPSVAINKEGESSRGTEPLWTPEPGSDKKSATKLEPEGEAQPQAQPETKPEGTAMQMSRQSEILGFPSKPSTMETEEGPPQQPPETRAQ
# kinases (468) [24] = biological target: kinases (468) (Homo sapiens, UniProt O75747); details: PIK3C2G; 1000 nM
# kinases (468) [25] = biological target: kinases (468) (Homo sapiens, UniProt Q9UKI8); details: kinase TLK1 (Entrez TLK1); compound concentration 1000 nM
# kinases (468) (Homo sapiens, UniProt Q9UKI8), sequence (Q9UKI8 whole entry): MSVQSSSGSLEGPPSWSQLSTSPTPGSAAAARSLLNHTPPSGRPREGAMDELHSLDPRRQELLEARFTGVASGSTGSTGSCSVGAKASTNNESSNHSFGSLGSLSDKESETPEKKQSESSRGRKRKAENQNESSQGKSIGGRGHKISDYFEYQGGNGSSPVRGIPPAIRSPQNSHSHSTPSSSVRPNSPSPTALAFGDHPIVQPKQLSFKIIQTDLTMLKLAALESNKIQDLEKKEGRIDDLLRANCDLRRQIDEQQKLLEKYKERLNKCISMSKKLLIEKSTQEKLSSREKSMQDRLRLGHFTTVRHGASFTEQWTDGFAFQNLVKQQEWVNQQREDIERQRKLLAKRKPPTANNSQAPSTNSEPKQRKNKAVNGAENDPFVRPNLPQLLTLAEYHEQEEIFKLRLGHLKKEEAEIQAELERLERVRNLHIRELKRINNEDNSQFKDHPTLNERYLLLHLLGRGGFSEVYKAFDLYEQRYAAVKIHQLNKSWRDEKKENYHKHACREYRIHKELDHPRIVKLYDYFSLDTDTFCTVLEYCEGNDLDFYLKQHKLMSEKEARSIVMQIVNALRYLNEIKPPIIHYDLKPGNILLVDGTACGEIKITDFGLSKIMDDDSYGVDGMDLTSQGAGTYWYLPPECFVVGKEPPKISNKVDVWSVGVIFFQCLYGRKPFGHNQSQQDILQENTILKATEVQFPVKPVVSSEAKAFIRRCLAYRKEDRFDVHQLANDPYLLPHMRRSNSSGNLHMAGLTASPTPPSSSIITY
# kinases (468) [26] = biological target: kinases (468) (Homo sapiens, UniProt P31749); details: AKT1; 1000 nM
# kinases (468) [27] = biological target: kinases (468) (Homo sapiens, UniProt P29320); details: EPHA3; 1000 nM
# kinases (468) [28] = biological target: kinases (468) (Homo sapiens, UniProt Q9H422); details: HIPK3; 1000 nM
# kinases (468) [29] = biological target: kinases (468) (Homo sapiens, UniProt Q00535); details: CDK5; 1000 nM
# kinases (468) [30] = biological target: kinases (468) (Homo sapiens, UniProt P42336, C420R); details: PIK3CA(C420R); 1000 nM
# kinases (468) (Homo sapiens, UniProt P42336, C420R), sequence (P42336 whole entry C420R): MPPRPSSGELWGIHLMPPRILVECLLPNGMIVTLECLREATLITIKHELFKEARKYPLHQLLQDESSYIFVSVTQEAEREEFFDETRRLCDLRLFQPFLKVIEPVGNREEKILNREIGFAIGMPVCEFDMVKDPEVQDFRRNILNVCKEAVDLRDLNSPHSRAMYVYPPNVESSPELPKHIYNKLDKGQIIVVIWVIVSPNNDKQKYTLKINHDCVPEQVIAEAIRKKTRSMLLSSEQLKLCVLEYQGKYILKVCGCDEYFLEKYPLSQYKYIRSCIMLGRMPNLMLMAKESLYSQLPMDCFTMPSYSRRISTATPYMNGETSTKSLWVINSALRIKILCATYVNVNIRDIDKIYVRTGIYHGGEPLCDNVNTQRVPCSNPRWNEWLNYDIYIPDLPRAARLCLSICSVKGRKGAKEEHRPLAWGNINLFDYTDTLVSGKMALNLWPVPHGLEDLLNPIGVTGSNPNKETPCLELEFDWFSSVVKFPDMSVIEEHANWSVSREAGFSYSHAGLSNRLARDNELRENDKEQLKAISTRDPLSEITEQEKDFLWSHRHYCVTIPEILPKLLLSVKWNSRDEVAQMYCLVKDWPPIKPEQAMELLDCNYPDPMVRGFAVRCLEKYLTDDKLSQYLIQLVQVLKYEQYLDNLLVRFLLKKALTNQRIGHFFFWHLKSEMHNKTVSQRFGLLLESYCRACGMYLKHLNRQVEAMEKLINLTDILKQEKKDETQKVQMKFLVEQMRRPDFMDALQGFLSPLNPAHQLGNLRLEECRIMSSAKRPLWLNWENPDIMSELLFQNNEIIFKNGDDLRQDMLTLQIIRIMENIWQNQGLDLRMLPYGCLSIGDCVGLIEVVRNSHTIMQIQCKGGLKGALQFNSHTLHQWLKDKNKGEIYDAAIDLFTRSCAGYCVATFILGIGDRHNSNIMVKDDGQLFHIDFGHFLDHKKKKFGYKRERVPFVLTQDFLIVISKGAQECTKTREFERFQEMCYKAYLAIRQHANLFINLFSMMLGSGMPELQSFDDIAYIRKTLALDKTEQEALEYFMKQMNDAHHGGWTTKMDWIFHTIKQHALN
# kinases (468) [31] = biological target: kinases (468) (Homo sapiens, UniProt Q5VT25); details: MRCKA (CDC42BPA); 1000 nM
# kinases (468) [32] = biological target: kinases (468) (Homo sapiens, UniProt O96013); details: PAK4; 1000 nM
# kinases (468) (Homo sapiens, UniProt O96013), sequence (O96013 whole entry): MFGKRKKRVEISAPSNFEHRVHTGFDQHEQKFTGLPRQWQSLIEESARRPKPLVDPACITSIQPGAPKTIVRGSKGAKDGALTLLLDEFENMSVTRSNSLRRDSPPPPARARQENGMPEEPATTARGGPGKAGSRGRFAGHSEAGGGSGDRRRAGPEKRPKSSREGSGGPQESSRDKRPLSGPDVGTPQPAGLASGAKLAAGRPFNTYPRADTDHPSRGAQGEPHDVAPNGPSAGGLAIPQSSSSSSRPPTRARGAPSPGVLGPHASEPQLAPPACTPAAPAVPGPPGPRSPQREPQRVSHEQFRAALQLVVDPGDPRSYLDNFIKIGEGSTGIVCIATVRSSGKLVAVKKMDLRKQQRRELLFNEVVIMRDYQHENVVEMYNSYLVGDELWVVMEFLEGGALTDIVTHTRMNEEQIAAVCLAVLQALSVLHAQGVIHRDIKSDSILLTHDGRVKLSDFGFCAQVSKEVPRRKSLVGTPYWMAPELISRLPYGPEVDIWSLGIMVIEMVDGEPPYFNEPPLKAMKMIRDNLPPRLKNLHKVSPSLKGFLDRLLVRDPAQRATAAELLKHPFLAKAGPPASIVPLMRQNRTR
# kinases (468) [33] = biological target: kinases (468) (Homo sapiens, UniProt Q8IWQ3); details: BRSK2; 1000 nM
# kinases (468) [34] = biological target: kinases (468) (Homo sapiens, UniProt Q96SB4); details: kinase SRPK1 (Entrez SRPK1); compound concentration 1000 nM
structure (smiles),measurement,setting,value
C[C@H]1C[C@@H](O)CN(c2ncc(Cl)c(Nc3ccc4c(c3)c3c(c(=O)n4C)OCC(F)(F)[C@H](C4CC4)N3)n2)C1 [CCT373566_9A],Percent Control,kinases (468) [1],92%
same,Percent Control,kinases (468) [2],78%
same,Percent Control,kinases (468) [3],80%
same,Percent Control,kinases (468) [4],97%
same,Percent Control,kinases (468) [5]; kinase RSK1(Kin.Dom.1-N-terminal) (Entrez RPS6KA1),95%
same,Percent Control,kinases (468) [5]; kinase RSK1(Kin.Dom.2-C-terminal) (Entrez RPS6KA1),90%
same,Percent Control,kinases (468) [6],99%
same,Percent Control,kinases (468) [7],78%
same,Percent Control,kinases (468) [8],100%
same,Percent Control,kinases (468) [9],57%
same,Percent Control,kinases (468) [10],99%
same,Percent Control,kinases (468) [11],91%
same,Percent Control,kinases (468) [12],87%
same,Percent Control,kinases (468) [13],95%
same,Percent Control,kinases (468) [14],100%
same,Percent Control,kinases (468) [15],100%
same,Percent Control,kinases (468) [16],100%
same,Percent Control,kinases (468) [17],100%
same,Percent Control,kinases (468) [18],100%
same,Percent Control,kinases (468) [19],100%
same,Percent Control,kinases (468) [20],100%
same,Percent Control,kinases (468) [21],100%
same,Percent Control,kinases (468) [22],99%
same,Percent Control,kinases (468) [23],100%
same,Percent Control,kinases (468) [24],86%
same,Percent Control,kinases (468) [25],87%
same,Percent Control,kinases (468) [26],100%
same,Percent Control,kinases (468) [27],85%
same,Percent Control,kinases (468) [28],100%
same,Percent Control,kinases (468) [29],97%
same,Percent Control,kinases (468) [30],93%
same,Percent Control,kinases (468) [31],99%
same,Percent Control,kinases (468) [32],100%
same,Percent Control,kinases (468) [33],100%
same,Percent Control,kinases (468) [34],83%
